{"source": "patent US5214063A", "about": "“4-aminobutyric acid compounds, compositions and methods of use for treating disorders related to a dysfunction of GABAB receptors” (Adir et Compagnie, priority 1990, dated 1993)", "test_system": "hippocampal preparations (CA3 pyramidal cells)", "assay": "Inhibition of excitation activity induced by convulsants (bicucullin) in hippocampal preparations", "assay_type": "cell-based", "details": "10 min; excitation induced by bicucullin (50 μM), compound perfused 10 minutes, adult female rat hippocampal preparations; read-out: inhibiting concentration 50 (IC50)", "description": "Hippocampal preparations were prepared from the brains of sacrificed adult female rats. Transverse sections were placed in a preservative medium. After 1 hour and 30 minutes' incubation, the isolated preparations were placed under registration, perfused with a saline solution and oxygenated. Spontaneous potentials appear which are associated with CA3 pyramidal cells. Excitation is induced by the addition of bicucullin (50 μM).\nThe compounds of the invention, at various concentrations, or baclofen are then added.\nThe baclofen or the compounds of the invention are perfused for periods of 10 minutes. The excitation rate is calculated during the four minutes preceding the perfusion of baclofen or the compounds of the invention and during the last four minutes of the perfusion of the products to be studied.\nThe inhibition is expressed as percentage excitation in relation to the initial rate, which permits the determination of an inhibiting concentration 50 (IC50). The compounds of the invention have an IC50 of from 5 to 20 μM; baclofen in this test has an IC50 of approximately 50 μM."}
{"smiles": "NCC(CC(=O)O)c1ccc(Cl)cc1", "note": "(stereo not shown) [baclofen, 4-amino-3-(4-chlorophenyl)butyric acid]", "values": [{"measurement": "IC50", "value": "~50", "unit": "µM"}]}
